Starred links: 1 amine or outer side, 2 acyl side, 3 side chain; linkers in the order of their positions; H or OH if unused. Residues, ends and D or L forms follow the SMILES beside them. Groups on a side chain read outwards from the residue. *: point of attachment. Glutaryl = O=C(CCCC(=O)[*:2])[*:1]; NHNH2 = NN*
Tests used:
Assay type in all cases: cell-based
[1] = test system: A549 cells; assay: EGFP mRNA delivery, robotic library screening, A549
Procedure: (§1) Cells were seeded in a 96 well plate the day before the experiment at a concentration of 50,000 cell/mL (100 μL/w) in DMEM+10% FBS+1% Gln-Abt. For robotic library screening, the delivery of EGFP-mRNA (from TriLink, fully substituted with 5-methoxyuridine, capped and polyadenylated; TriLink, CleanCap® EGFP mRNA (5moU), ref. L-7201) in six different cell lines was performed. Amphiphilic molecule stock solutions were prepared in DMSO as described above and diluted in DMEM to afford a range of concentrations. The solutions of EGFP-mRNA/amphiphilic molecule complexes were freshly prepared prior to the transfection experiments. 35 μL of the corresponding amphiphile were added to 10 μL of a solution of EGFP-mRNA at 10 ng/μL in DMEM. The mixture was shaken for 30 min at room temperature before the addition to the cells. The cell medium was aspirated, and cells were washed with PBS twice. Cells were covered with 39 μL of DMEM and 11 μL of the complex's solution were added to the cells and incubated for 4 h (final concentration of peptide=2.5, 5 and 10 μM; final concentration of EGFP-mRNA=25 ng/well). After the incubation, the medium was replaced by 100 μL of fresh DMEM supplemented with 10% FBS. The total EGFP fluorescence was quantified after 72 h in a well plate reader. Amphiphile transfection efficiency was compared and normalized to Lipofectamine® MessengerMax efficiency (value of 1 in Tables 1-5 and 7; double underlined numbers). All experiments were done in triplicate.
(§2) Tables 1-7: RLuc (pDNA) or EGFP (mRNA) expression levels were normalized to Lipofectamine reagents (value=1) and expressed as fold-times signal increase. In the case of siRNA, the siRNA treated cells fluorescence was compared with siMOCK control fluorescence, while Cas9-RNP mediated knockout was measured against the fluorescence of untreated cells. In both siRNA and Cas9-RNP, values are expressed as % fluorescence reduction. Amphiphile concentration was 5 μM in all cases. All experiments were performed in triplicate.
(§3) Tables 14-19 show the mean (triplicates) fluorescence intensity measured after the transfection of EGFP mRNA by different amphiphiles at different concentrations in a variety of cell lines. Background fluorescence values, accounted by untreated control cells, were subtracted for processing.

[2] = test system: A549 cells expressing EGFP; assay: Cas9-RNP delivery against EGFP (gene editing, plate reader), A549; settings: for percentage of gene editing, GFP fluorescence intensity decrease (% of reduction): A549 cells
Procedure: To generate an EGFP expressing HeLa cell line, HeLa cells were transfected with EGFP pDNA (pEGFP-C1, Clontech) and stable transfectants were selected with 400 μg/mL of G-418 (Millipore). Green clones were selected by epifluorescence microscopy and tested for EGFP expression stability through several passages. […] All other EGFP-expressing cell lines were obtained in a similar way from parent non-EGFP-expressing cell lines.
Cells expressing EGFP were seeded in a 96 well plate the day before the experiment at a concentration of 50,000 cell/mL (100 μL/w) in DMEM+10% FBS+1% Gln-Abt. For robotic library screening, the delivery of Cas9-RNP against EGFP (RNP designed to knock-out the gene encoding for the enhanced green fluorescent protein (EGFP)) was performed. For RNP assembly, 9.2 μL of crRNA and 9.2 μL of tracrRNA were mixed in 211.6 μL of Nuclease-Free Duplex Buffer (IDT), incubated for 5 min at 95° C. and slowly cooled at rt (see I. Lostalé-Seijo, et al. Peptide/Cas9 nanostructures for ribonucleoprotein cell membrane transport and gene edition, Chem. Sci., 2017). Cas9 protein was dissolved in DMEM at a final concentration of 4 μM and equal volumes of the RNA complex and Cas9 were mixed and incubated for 5 min at rt. 75 μL of the corresponding amphiphile concentrations were added to 5 μL of RNP at 2 μM. The mixture was shaken for 30 min at room temperature before the addition to the cells. The cell medium was aspirated, and cells were washed twice with PBS. Cells were covered with 30 μL of DMEM and 20 μL of the RNP/amphiphile complexes were added to the cells (final peptide concentrations=2.5, 5 and 10 μM; final Cas9-RNP concentration=50 nM) and incubated for 4 h. After the incubation, the medium was replaced by 100 μL of fresh DMEM supplemented with 10% FBS. The total EGFP fluorescence was quantified after 72 h in a plate reader (FIG. 2, Table 1 (right) and Table 6). All experiments were done in triplicate.
as §2
Tables 26-31 show the mean (triplicates) percentage of gene editing, accounted by GFP fluorescence intensity decrease (% of reduction), measured after the transfection of Cas9-RNP by different amphiphiles at different concentrations in a variety of cell lines. Background values, accounted by untreated control cells, were subtracted for processing.

[3] = test system: ARPE19 cells; assay: EGFP mRNA delivery, robotic library screening, ARPE19
Procedure: as §1, §2, §3

[4] = test system: ARPE19 cells; assay: RLuc pDNA delivery, robotic library screening, ARPE19

CC(=O)N[C@@H](CCCNC(=N)N)C(=O)N[C@@H](CCCCNC(=O)CCCC(=O)NN)C(=O)N[C@@H](Cc1c[nH]cn1)C(=O)N[C@@H](CCCNC(=N)N)C(=O)N[C@@H](CCCCNC(=O)CCCC(=O)NN)C(=O)N[C@@H](CCCCNC(=O)CCCC(=O)NN)C(=O)N[C@@H](Cc1c[nH]cn1)C(N)=O [7.3(L-H), Ac-RK*HRK*K*H-NH2] (Ac-RK([Glutaryl-NHNH2])HRK([Glutaryl-NHNH2])K([Glutaryl-NHNH2])H-NH2)
mean fluorescence intensity (EGFP mRNA) ([1]; Dodecanal, 2.5 μM): 570
mean fluorescence intensity (EGFP mRNA) ([1]; Dodecanal, 5 μM): 375
mean fluorescence intensity (EGFP mRNA) ([1]; Dodecanal, 10 μM): 587
mean fluorescence intensity (EGFP mRNA) ([1]; Myristoleyl, 2.5 μM): 19549
mean fluorescence intensity (EGFP mRNA) ([1]; Myristoleyl, 5 μM): 6729
mean fluorescence intensity (EGFP mRNA) ([1]; Myristoleyl, 10 μM): 2718
mean fluorescence intensity (EGFP mRNA) ([1]; Oleyl, 2.5 μM): 12392
mean fluorescence intensity (EGFP mRNA) ([1]; Oleyl, 5 μM): 4708
mean fluorescence intensity (EGFP mRNA) ([1]; Oleyl, 10 μM): 1954
mean fluorescence intensity (EGFP mRNA) ([1]; Palmitoleyl, 2.5 μM): 52764
mean fluorescence intensity (EGFP mRNA) ([1]; Palmitoleyl, 5 μM): 19296
mean fluorescence intensity (EGFP mRNA) ([1]; Palmitoleyl, 10 μM): 3995
mean fluorescence intensity (EGFP mRNA) ([1]; Petroselinyl, 2.5 μM): 9125
mean fluorescence intensity (EGFP mRNA) ([1]; Petroselinyl, 5 μM): 2712
mean fluorescence intensity (EGFP mRNA) ([1]; Petroselinyl, 10 μM): −119
mRNA delivery relative to Lipofectamine MessengerMAX ([1]; palmitoleyl aldehyde): two times better
Cas9-RNP % fluorescence reduction ([2]; A549, 5 μM, Myr tail): 60%
Cas9-RNP % fluorescence reduction ([2]; A549, 5 μM, Pal tail): 67%
Cas9-RNP % fluorescence reduction ([2]; A549, 5 μM, Pet tail): 58%
efficiency on GFP silencing (Cas9-RNP delivery) ([2]; A549, myristoleyl, palmitoleyl or petroselinyl aldehydes): 60-70%
percentage of gene editing, GFP fluorescence intensity decrease (% of reduction) ([2]; Dodecanal, 15 μM): −9%
percentage of gene editing, GFP fluorescence intensity decrease (% of reduction) ([2]; Myristoleyl, 5 μM): 60%
percentage of gene editing, GFP fluorescence intensity decrease (% of reduction) ([2]; Myristoleyl, 10 μM): 29%
percentage of gene editing, GFP fluorescence intensity decrease (% of reduction) ([2]; Myristoleyl, 15 μM): 11%
percentage of gene editing, GFP fluorescence intensity decrease (% of reduction) ([2]; Oleyl, 5 μM): 22%
percentage of gene editing, GFP fluorescence intensity decrease (% of reduction) ([2]; Oleyl, 10 μM): 31%
percentage of gene editing, GFP fluorescence intensity decrease (% of reduction) ([2]; Oleyl, 15 μM): 9%
percentage of gene editing, GFP fluorescence intensity decrease (% of reduction) ([2]; Palmitoleyl, 5 μM): 67%
percentage of gene editing, GFP fluorescence intensity decrease (% of reduction) ([2]; Palmitoleyl, 10 μM): 35%
percentage of gene editing, GFP fluorescence intensity decrease (% of reduction) ([2]; Palmitoleyl, 15 μM): −6%
percentage of gene editing, GFP fluorescence intensity decrease (% of reduction) ([2]; Petroselinyl, 5 μM): 59%
percentage of gene editing, GFP fluorescence intensity decrease (% of reduction) ([2]; Petroselinyl, 10 μM): 29%
percentage of gene editing, GFP fluorescence intensity decrease (% of reduction) ([2]; Petroselinyl, 15 μM): 26%
mean fluorescence intensity (EGFP mRNA) ([3]; Myristoleyl, 2.5 μM): 22958
mean fluorescence intensity (EGFP mRNA) ([3]; Myristoleyl, 5 μM): 6178
mean fluorescence intensity (EGFP mRNA) ([3]; Myristoleyl, 10 μM): 1216
mean fluorescence intensity (EGFP mRNA) ([3]; Oleyl, 5 μM): 9014
mean fluorescence intensity (EGFP mRNA) ([3]; Oleyl, 10 μM): 4676
mean fluorescence intensity (EGFP mRNA) ([3]; Palmitoleyl, 2.5 μM): 35030
mean fluorescence intensity (EGFP mRNA) ([3]; Palmitoleyl, 5 μM): 28077
mean fluorescence intensity (EGFP mRNA) ([3]; Palmitoleyl, 10 μM): 4574
mean fluorescence intensity (EGFP mRNA) ([3]; Petroselinyl, 2.5 μM): 6471
mean fluorescence intensity (EGFP mRNA) ([3]; Petroselinyl, 5 μM): 38057
mean fluorescence intensity (EGFP mRNA) ([3]; Petroselinyl, 10 μM): 29449
mean luminescent intensity (RLuc pDNA) ([4]; Myristoleyl, 5 μM): 34050 RLU
mean luminescent intensity (RLuc pDNA) ([4]; Myristoleyl, 10 μM): 40509 RLU
mean luminescent intensity (RLuc pDNA) ([4]; Myristoleyl, 15 μM): 13457 RLU
mean luminescent intensity (RLuc pDNA) ([4]; Palmitoleyl, 5 μM): 111815 RLU
mean luminescent intensity (RLuc pDNA) ([4]; Palmitoleyl, 10 μM): 92487 RLU
mean luminescent intensity (RLuc pDNA) ([4]; Palmitoleyl, 15 μM): 55716 RLU
mean luminescent intensity (RLuc pDNA) ([4]; Petroselinyl, 5 μM): 79286 RLU
mean luminescent intensity (RLuc pDNA) ([4]; Petroselinyl, 10 μM): 77882 RLU
mean luminescent intensity (RLuc pDNA) ([4]; Petroselinyl, 15 μM): 15465 RLU
pDNA delivery, times better than Lipofectamine 2000 ([4]; palmitoleyl aldehyde): 10 times
pDNA delivery, times better than Lipofectamine 2000 ([4]; petroselinyl aldehyde): 7 times
